According to ChEMBL document CHEMBL1125573 (J Med Chem, 1992):

Legend:
[1] = molecular target: Serotonin 2 (5-HT2) receptor (Rattus norvegicus, UniProt P30994+P08909+P14842); assay: The compound was tested in vitro for binding affinity towards 5-hydroxytryptamine 2 receptor by displacing [125]I-LSD radioligand; format: protein assay
D(2) dopamine receptor [2] = molecular target: T1, D(2) dopamine receptor (Rattus norvegicus, UniProt P61169); assay: Binding affinity towards Dopamine receptor D2 by displacing [3H]spiperone
D(2) dopamine receptor [3] = molecular target: T1, D(2) dopamine receptor; assay: Displacement of [3H]spiperone from dopamine receptor D2
[4] = molecular target: Dopamine D2 receptor/Serotonin 2 (5-HT2) receptor (Rattus norvegicus) (UniProt P61169+P30994+P08909+P14842); assay: Relative binding affinity for dopamine D2 and 5-HT2 receptors; format: protein assay
Dopamine D2 receptor/Serotonin 2 (5-HT2) receptor (Rattus norvegicus), sequence (P08909 whole entry, looked up): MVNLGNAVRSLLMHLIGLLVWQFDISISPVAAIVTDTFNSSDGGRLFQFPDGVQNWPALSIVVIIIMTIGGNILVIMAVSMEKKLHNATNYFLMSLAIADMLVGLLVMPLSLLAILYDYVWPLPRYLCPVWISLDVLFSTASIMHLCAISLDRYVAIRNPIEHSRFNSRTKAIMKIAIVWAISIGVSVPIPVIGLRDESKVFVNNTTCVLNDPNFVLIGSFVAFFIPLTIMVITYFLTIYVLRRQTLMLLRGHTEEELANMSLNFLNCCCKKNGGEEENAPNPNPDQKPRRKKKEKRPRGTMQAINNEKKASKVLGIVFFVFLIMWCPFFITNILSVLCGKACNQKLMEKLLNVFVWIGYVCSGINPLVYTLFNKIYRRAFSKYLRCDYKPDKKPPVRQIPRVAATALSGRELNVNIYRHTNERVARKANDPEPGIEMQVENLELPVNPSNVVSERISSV
Dopamine D2 receptor/Serotonin 2 (5-HT2) receptor (Rattus norvegicus), sequence (P14842 whole entry, looked up): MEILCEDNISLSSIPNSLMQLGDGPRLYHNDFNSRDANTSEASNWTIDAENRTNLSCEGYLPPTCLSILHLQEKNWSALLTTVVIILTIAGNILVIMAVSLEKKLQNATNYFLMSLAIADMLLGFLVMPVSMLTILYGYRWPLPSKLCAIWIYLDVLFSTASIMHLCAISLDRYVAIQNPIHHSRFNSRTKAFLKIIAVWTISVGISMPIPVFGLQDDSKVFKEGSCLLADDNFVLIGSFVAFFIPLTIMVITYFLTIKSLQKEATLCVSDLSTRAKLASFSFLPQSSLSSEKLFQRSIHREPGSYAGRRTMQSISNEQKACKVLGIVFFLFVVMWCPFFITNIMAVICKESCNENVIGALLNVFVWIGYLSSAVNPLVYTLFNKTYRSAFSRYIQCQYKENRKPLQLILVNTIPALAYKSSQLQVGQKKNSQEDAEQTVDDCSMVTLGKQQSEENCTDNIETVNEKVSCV
Dopamine D2 receptor/Serotonin 2 (5-HT2) receptor (Rattus norvegicus), sequence (P30994 whole entry, looked up): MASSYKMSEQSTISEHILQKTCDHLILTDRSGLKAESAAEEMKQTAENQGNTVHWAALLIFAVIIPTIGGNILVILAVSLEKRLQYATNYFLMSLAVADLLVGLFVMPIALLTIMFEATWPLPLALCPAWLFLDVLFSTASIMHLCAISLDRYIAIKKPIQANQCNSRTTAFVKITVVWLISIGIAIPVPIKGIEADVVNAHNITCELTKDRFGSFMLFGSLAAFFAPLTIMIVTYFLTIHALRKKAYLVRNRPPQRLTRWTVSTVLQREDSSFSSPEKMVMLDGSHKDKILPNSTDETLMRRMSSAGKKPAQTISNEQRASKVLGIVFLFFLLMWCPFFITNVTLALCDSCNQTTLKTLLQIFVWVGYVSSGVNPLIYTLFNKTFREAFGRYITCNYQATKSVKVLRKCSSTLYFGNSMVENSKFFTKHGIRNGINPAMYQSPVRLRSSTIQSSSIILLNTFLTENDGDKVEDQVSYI
Dopamine D2 receptor/Serotonin 2 (5-HT2) receptor (Rattus norvegicus), sequence (P61169 whole entry, looked up): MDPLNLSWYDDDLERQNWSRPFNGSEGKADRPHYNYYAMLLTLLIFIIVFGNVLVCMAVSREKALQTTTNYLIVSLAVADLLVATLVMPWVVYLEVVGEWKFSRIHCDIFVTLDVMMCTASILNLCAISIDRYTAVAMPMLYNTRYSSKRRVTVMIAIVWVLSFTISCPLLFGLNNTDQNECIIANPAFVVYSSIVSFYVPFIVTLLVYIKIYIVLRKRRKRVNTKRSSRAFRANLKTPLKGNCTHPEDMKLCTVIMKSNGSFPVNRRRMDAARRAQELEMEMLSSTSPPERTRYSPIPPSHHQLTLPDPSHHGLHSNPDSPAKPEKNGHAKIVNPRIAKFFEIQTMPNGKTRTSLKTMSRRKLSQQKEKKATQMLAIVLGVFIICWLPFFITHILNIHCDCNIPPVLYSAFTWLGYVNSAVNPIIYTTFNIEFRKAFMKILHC

T1 sequence (P61169 whole entry): as the sequence (P61169 whole entry, looked up) above

SMILES	Ki [1]	Ki (D(2) dopamine receptor [2])	Ki (D(2) dopamine receptor [3])	Ratio [4]
O=C(CCCN1CCC2(CC1)C(=O)N(Cc1ccc([N+](=O)[O-])cc1)CN2c1ccccc1)c1ccc(F)cc1	14 nM	0.119 nM	–	–
O=C(CCCN1CCC2(CC1)C(=O)N(Cc1ccc(F)cc1)CN2c1ccccc1)c1ccc(F)cc1	21 nM	–	0.069 nM	300
CCN1CN(c2ccccc2)C2(CCN(CCCC(=O)c3ccc(F)cc3)CC2)C1=O	0.31 nM	0.057 nM	–	–
CCCCCN1CN(c2ccccc2)C2(CCN(CCCC(=O)c3ccc(F)cc3)CC2)C1=O	1.1 nM	–	0.062 nM	18
COc1ccccc1CN1CN(c2ccccc2)C2(CCN(CCCC(=O)c3ccc(F)cc3)CC2)C1=O	1.9 nM	0.047 nM	–	–
CCCCN1CN(c2ccccc2)C2(CCN(CCCC(=O)c3ccc(F)cc3)CC2)C1=O	0.41 nM	–	0.036 nM	11
O=C(CCCN1CCC2(CC1)C(=O)N(Cc1ccccc1[N+](=O)[O-])CN2c1ccccc1)c1ccc(F)cc1	0.68 nM	0.12 nM	–	–
O=C(CCCN1CCC2(CC1)C(=O)N(Cc1ccccc1I)CN2c1ccccc1)c1ccc(F)cc1	19 nM	0.063 nM	–	–
O=C(CCCN1CCC2(CC1)C(=O)N(CCc1ccccc1)CN2c1ccccc1)c1ccc(F)cc1	1 nM	–	0.035 nM	29
CC(C)CCN1CN(c2ccccc2)C2(CCN(CCCC(=O)c3ccc(F)cc3)CC2)C1=O	1.3 nM	–	0.063 nM	21
CN1CN(c2ccccc2)C2(CCN(CCCC(=O)c3ccc(F)cc3)CC2)C1=O [MESPIPERONE]	0.55 nM	0.118 nM	–	–
O=C(CCCN1CCC2(CC1)C(=O)N(Cc1ccccc1F)CN2c1ccccc1)c1ccc(F)cc1	4.4 nM	–	0.043 nM	100
CCCN1CN(c2ccccc2)C2(CCN(CCCC(=O)c3ccc(F)cc3)CC2)C1=O	0.096 nM	–	0.029 nM	3.3
Cc1ccc(CN2CN(c3ccccc3)C3(CCN(CCCC(=O)c4ccc(F)cc4)CC3)C2=O)cc1	37 nM	0.067 nM	–	–
COc1ccc(CN2CN(c3ccccc3)C3(CCN(CCCC(=O)c4ccc(F)cc4)CC3)C2=O)cc1	12 nM	0.087 nM	–	–
O=C(CCCN1CCC2(CC1)C(=O)N(Cc1cccc(F)c1)CN2c1ccccc1)c1ccc(F)cc1	5.3 nM	–	0.023 nM	230
O=C(CCCN1CCC2(CC1)C(=O)N(Cc1ccccc1)CN2c1ccccc1)c1ccc(F)cc1	3.2 nM	–	0.023 nM	140
Cc1ccccc1CN1CN(c2ccccc2)C2(CCN(CCCC(=O)c3ccc(F)cc3)CC2)C1=O	9.6 nM	–	0.033 nM	290
CC(C)CN1CN(c2ccccc2)C2(CCN(CCCC(=O)c3ccc(F)cc3)CC2)C1=O	0.13 nM	–	0.039 nM	3.3
O=C(CCCN1CCC2(CC1)C(=O)N(Cc1ccc(I)cc1)CN2c1ccccc1)c1ccc(F)cc1	89 nM	0.213 nM	–	–
